In ChEMBL document CHEMBL1201862, “PubChem BioAssay data set” (2004):
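Where inhibition never reached the appropriate level, the endpoint shown equals the highest concentration tested. Otherwise, values were interpolated linearly from a five-concentration, 48-hour dose response in 96-well plates. GI50 = concentration required for 50% inhibition of growth.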 The source made the active and inactive calls. No stated cut-off is given here; in the data, active = GI50 up to about 1.1 µM and inactive = higher. Where a SMILES comes first, the peptide text is derived from it. The star is where a group is joined. Fmoc = O=C(OCC1c2ccccc2-c2ccccc21)*; OtBu = CC(C)(C)O*

How the values were obtained:
Test in all cases: NCI anticancer screen, dose series, 48 h
HL-60 = test system: HL-60
MDA-MB-435 = test system: MDA-MB-435
OVCAR-8 = test system: OVCAR-8
EKVX = test system: EKVX
TK-10 = test system: TK-10
HCC 2998 = test system: HCC 2998
IGROV-1 = test system: IGROV-1
SF-268 = test system: SF-268
UACC-62 = test system: UACC-62
OVCAR-3 = test system: OVCAR-3
MDA-N = test system: MDA-N
NCI-H522 = test system: NCI-H522
CAKI-1 = test system: CAKI-1
NCI-H226 = test system: NCI-H226
BT-549 = test system: BT-549
COLO 205 = test system: COLO 205
DU-145 = test system: DU-145
LOX IMVI = test system: LOX IMVI
HT-29 = test system: HT-29
SK-MEL-2 = test system: SK-MEL-2

Compound | GI50 (HL-60) | GI50 (MDA-MB-435) | GI50 (OVCAR-8) | GI50 (EKVX) | GI50 (TK-10) | GI50 (HCC 2998) | GI50 (IGROV-1) | GI50 (SF-268) | GI50 (UACC-62) | GI50 (OVCAR-3) | GI50 (MDA-N) | GI50 (NCI-H522) | GI50 (CAKI-1) | GI50 (NCI-H226) | GI50 (BT-549) | GI50 (COLO 205) | GI50 (DU-145) | GI50 (LOX IMVI) | GI50 (HT-29) | GI50 (SK-MEL-2)
O=C1/C(=C/c2ccc([N+](=O)[O-])cc2)Oc2cc(O)ccc21 | 17.5 µM (inactive) | 30.5 µM (inactive) | 29.6 µM (inactive) | 33.7 µM (inactive) | 27.4 µM (inactive) | 34.6 µM (inactive) | 29.1 µM (inactive) | 61 µM (inactive) | 33 µM (inactive) | 27.5 µM (inactive) | 23.2 µM (inactive) | 24.8 µM (inactive) | 23.6 µM (inactive) | 13.2 µM (inactive) | 25.9 µM (inactive) | > 10 µM (inactive) | 33.7 µM (inactive) |  |  | 
CSc1ncnc2c1cnn2Cc1cn(CCCCO)nn1 |  | > 100 µM (inactive) | > 100 µM (inactive) | > 100 µM (inactive) | > 100 µM (inactive) | > 100 µM (inactive) | > 100 µM (inactive) | > 100 µM (inactive) | > 100 µM (inactive) | > 100 µM (inactive) | > 100 µM (inactive) | > 100 µM (inactive) | > 100 µM (inactive) | > 100 µM (inactive) | > 100 µM (inactive) | > 100 µM (inactive) | > 100 µM (inactive) | > 100 µM (inactive) | > 100 µM (inactive) | > 100 µM (inactive)
CC1(C)O[C@@H](CP(c2ccc3ccccc3c2)c2ccc3ccccc3c2)[C@H](CP(c2ccc3ccccc3c2)c2ccc3ccccc3c2)O1 |  | > 100 µM (inactive) | > 100 µM (inactive) | > 100 µM (inactive) | > 100 µM (inactive) | > 100 µM (inactive) | 33 µM (inactive) | > 100 µM (inactive) | > 100 µM (inactive) | 58.9 µM (inactive) | > 100 µM (inactive) | 25.5 µM (inactive) | > 100 µM (inactive) | 72.6 µM (inactive) | > 100 µM (inactive) | > 100 µM (inactive) | > 100 µM (inactive) | > 100 µM (inactive) | 85.5 µM (inactive) | > 100 µM (inactive)
COC(=O)C1=C(C)NC2=C(C(=O)c3ccccc32)C1c1cn(-c2ccccc2)nc1-c1ccccc1 (centres undefined) | 23.2 µM (inactive) | 16.6 µM (inactive) | > 100 µM (inactive) | > 42.9 µM (inactive) | > 100 µM (inactive) | 13.6 µM (inactive) | 6.24 µM (inactive) | > 45.6 µM (inactive) | > 42.6 µM (inactive) | > 48.1 µM (inactive) | > 61.7 µM (inactive) | > 53.5 µM (inactive) | > 100 µM (inactive) | 74.1 µM (inactive) | 63.7 µM (inactive) | > 100 µM (inactive) | > 100 µM (inactive) | 37.4 µM (inactive) |  | > 59.3 µM (inactive)
CCCCCCCCCCCCOP(=O)(O)OCC(N)C(=O)O (centres undefined) | 17.4 µM (inactive) | 18.2 µM (inactive) | 38.5 µM (inactive) | 69.8 µM (inactive) | 24.7 µM (inactive) | 29.8 µM (inactive) | 35.6 µM (inactive) | 26.8 µM (inactive) |  | 17.3 µM (inactive) | 21.2 µM (inactive) | 31.8 µM (inactive) | 30.1 µM (inactive) | 19.7 µM (inactive) | 21.2 µM (inactive) | > 100 µM (inactive) | 83.4 µM (inactive) | 20.4 µM (inactive) | 43.3 µM (inactive) | 22.8 µM (inactive)
CN(CCc1ccccn1)c1ccc2c(c1)C(=O)c1ccccc1-2 |  | > 100 µM (inactive) | 99.1 µM (inactive) | 18.5 µM (inactive) | > 100 µM (inactive) | > 100 µM (inactive) | > 100 µM (inactive) | > 100 µM (inactive) | 46.1 µM (inactive) | > 100 µM (inactive) | 64.9 µM (inactive) | 71.1 µM (inactive) | > 100 µM (inactive) | 40.6 µM (inactive) | 78.9 µM (inactive) | 35.5 µM (inactive) | > 100 µM (inactive) | > 100 µM (inactive) | 66.4 µM (inactive) | 28.5 µM (inactive)
Cc1[nH]c2ncn3ncnc3c2c1Cc1ccccc1 | > 100 µM (inactive) | > 100 µM (inactive) | > 100 µM (inactive) | > 100 µM (inactive) | > 100 µM (inactive) | > 100 µM (inactive) | 92.7 µM (inactive) | > 100 µM (inactive) | > 100 µM (inactive) | > 100 µM (inactive) | > 100 µM (inactive) | > 100 µM (inactive) | > 100 µM (inactive) | > 100 µM (inactive) | > 100 µM (inactive) | > 100 µM (inactive) | > 100 µM (inactive) |  | > 100 µM (inactive) | > 100 µM (inactive)
CCNC(=S)NNC(=O)c1ccccc1Nc1ccccc1C(=O)NNC(=S)NCC | > 100 µM (inactive) | > 100 µM (inactive) | > 100 µM (inactive) | > 100 µM (inactive) | > 100 µM (inactive) | > 100 µM (inactive) | > 100 µM (inactive) |  | > 100 µM (inactive) | > 100 µM (inactive) | > 100 µM (inactive) | > 100 µM (inactive) |  | > 100 µM (inactive) | > 100 µM (inactive) | > 100 µM (inactive) | > 100 µM (inactive) | > 100 µM (inactive) | > 100 µM (inactive) | > 100 µM (inactive)
O=C1CSc2nnc(CCCCCCCCc3nnc4n3NC(=O)CS4)n2N1 | 31.5 µM (inactive) | > 100 µM (inactive) | 27.4 µM (inactive) | > 100 µM (inactive) |  | > 100 µM (inactive) | 42.6 µM (inactive) | 43.3 µM (inactive) | > 100 µM (inactive) | > 100 µM (inactive) | > 100 µM (inactive) | 26.7 µM (inactive) | > 100 µM (inactive) | > 100 µM (inactive) | 56.8 µM (inactive) | > 100 µM (inactive) | > 100 µM (inactive) |  | 23.1 µM (inactive) | > 100 µM (inactive)
Cn1ccnc1CCc1ccc(F)cc1F | > 100 µM (inactive) | > 100 µM (inactive) | > 100 µM (inactive) | > 100 µM (inactive) | > 100 µM (inactive) | > 100 µM (inactive) | > 100 µM (inactive) | > 100 µM (inactive) | > 100 µM (inactive) | > 100 µM (inactive) | > 100 µM (inactive) | > 100 µM (inactive) |  | > 100 µM (inactive) | > 100 µM (inactive) | > 100 µM (inactive) | > 100 µM (inactive) | > 100 µM (inactive) | > 100 µM (inactive) | > 100 µM (inactive)
Clc1ccc2c(NCCCC/N=C/c3ccccc3)ccnc2c1 |  | 12.6 µM (inactive) | 11.2 µM (inactive) | 15.5 µM (inactive) | 18.6 µM (inactive) | 14.5 µM (inactive) | 11.8 µM (inactive) | 14.2 µM (inactive) |  | 16.5 µM (inactive) | 11.7 µM (inactive) | 11.8 µM (inactive) |  | 4.33 µM (inactive) | 13.4 µM (inactive) | 4.53 µM (inactive) | 20.7 µM (inactive) | 13.5 µM (inactive) | 5.18 µM (inactive) | 11.8 µM (inactive)
CCCCOC(=O)C(O)Cc1ccoc1 (centres undefined) | > 100 µM (inactive) | > 100 µM (inactive) | > 100 µM (inactive) | > 100 µM (inactive) | > 100 µM (inactive) | > 100 µM (inactive) | > 100 µM (inactive) | > 100 µM (inactive) | > 100 µM (inactive) | > 100 µM (inactive) | > 100 µM (inactive) | > 100 µM (inactive) |  | > 100 µM (inactive) | > 100 µM (inactive) | > 100 µM (inactive) | > 100 µM (inactive) | > 100 µM (inactive) | > 100 µM (inactive) | > 100 µM (inactive)
CC(O)CCCCC(O)CCC[C@H](O)[C@H]1CCC([C@H]2CCC([C@@H](O)CCCCCCCCCCCCC3=C[C@H](C)OC3=O)O2)O1 (some centres undefined) | 9.79 µM (inactive) | 9.18 µM (inactive) | 10.1 µM (inactive) | 8.15 µM (inactive) | 9.48 µM (inactive) | 13.2 µM (inactive) | 10.5 µM (inactive) | 11.6 µM (inactive) | 10.9 µM (inactive) | 9.51 µM (inactive) | 10.6 µM (inactive) | 7.64 µM (inactive) | 9.84 µM (inactive) | 9.59 µM (inactive) | 11.2 µM (inactive) | 11.1 µM (inactive) | 12 µM (inactive) |  | 10.7 µM (inactive) | 8.77 µM (inactive)
Oc1cc(-c2cccc(Cl)c2)nc2ncccc12 | 0.0142 µM (active) | < 0.01 µM (active) | 0.377 µM (active) |  | 24.3 µM (inactive) | 0.0771 µM (active) | 0.0813 µM (active) | 5.53 µM (inactive) | 0.0577 µM (active) | 0.0466 µM (active) | 0.0132 µM (active) | 0.0474 µM (active) | 0.101 µM (active) | 0.378 µM (active) | 7.33 µM (inactive) | 0.0782 µM (active) | 0.644 µM (active) | 0.133 µM (active) | 0.0405 µM (active) | 0.197 µM (active)
CC(C)C(NC(=O)OCC1c2ccccc2-c2ccccc21)C(=O)NC(CCC(=O)OC(C)(C)C)C(=O)OC(C)(C)C (centres undefined) (Fmoc-Val-Glu(OtBu)-OtBu; configuration not given here) | 4.14 µM (inactive) | > 100 µM (inactive) | 23.9 µM (inactive) | > 100 µM (inactive) | > 100 µM (inactive) | > 100 µM (inactive) | > 100 µM (inactive) | > 87.3 µM (inactive) | > 76.9 µM (inactive) | > 100 µM (inactive) | > 100 µM (inactive) | > 45.1 µM (inactive) | > 100 µM (inactive) | > 100 µM (inactive) | > 100 µM (inactive) | > 31.6 µM (inactive) | > 100 µM (inactive) | 8.38 µM (inactive) | > 100 µM (inactive) | 
